Key:
[1] = test system: T. cruzi Tulahuen strain amastigotes; test: Trypanocidal activity against amastigote forms in LLCMK2 cells, Tulahuen strain; format: cell-based; conditions: T. cruzi Tulahuen strain; for killing at 32 µM / EC50: Trypanosoma cruzi; for killing at 32 µM: LLC-MK2, 120 h, read-out: %cell lysis at 32 μM ama Tula; for killing at 32 µM / %cell lysis at 32 μM ama Tula: amastigote lysis, 5 days; for EC50: LLC-MK2, read-out: pEC50 ama Tula (converted); for EC50 / pEC50 ama Tula: amastigote
Protocol: (§1) The assays against amastigote forms were performed in LLCMK2 cells. Previously, the cells were cultivated in 96-wells microplates (10^3 cells/well). […] After this, the microplates were incubated at 37°C, in CO2 atmosphere, for 5 days. Then, 10 μL of FluoReporter lacZ/Galactosidase Quantitative Kit (Life Technologies) were added and after 30 minutes the fluorometric reaction was read in a microplate reader (Synergy H1, Biotek) at 386 nm excitation and 448 nm emission. For both assays the percentage of parasite lysis was determined from the following formula: %lysis = 100 –{[(X-PC)/(PC-NC)]x100}, where the optical density values of the samples (X), the positive controls (PC) and negative controls (NC) were used. Culture medium was used as positive control (PC) and medium with 0.6% DMSO (v/v) as negative control (NC). All assays were performed in triplicate with two independent experiments.

[2] = target: T1, cruzain (Trypanosoma cruzi, UniProt P25779); test: biochemical; conditions: 37°C, pH 5.5, substrate Z-FR-AMC;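 note: fluorometric read-out of substrate hydrolysis at excitation 355 nm and emission 460 nm, initial rates over 5 min, Ki from nonlinear kinetic fits, duplicate runs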
T1 construct: made in house
T1 sequence (P25779 123-337 limits assumed): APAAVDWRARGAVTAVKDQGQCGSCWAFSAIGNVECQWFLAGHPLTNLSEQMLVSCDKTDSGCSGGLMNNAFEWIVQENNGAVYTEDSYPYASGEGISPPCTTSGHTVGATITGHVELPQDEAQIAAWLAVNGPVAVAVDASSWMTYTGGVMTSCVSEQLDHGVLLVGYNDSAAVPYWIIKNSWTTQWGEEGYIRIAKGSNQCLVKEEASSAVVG
Protocol: Enzyme kinetic assays were carried out at 37°C in 200 L of a solution containing 100 mM acetate buffer pH 5.5, 300 mM NaCl, 5 mM DTT (dithiothreitol), 5% v/v DMSO (dimethyl sulfoxide), 0.01% v/v Triton X-100 and 0.15 nM cruzain, using Corning® 96-well black flat bottom microplates. The rate of the reaction was monitored using a Biotek Synergy HT plate reader through the fluorescence emission at 460 nm (excitation at 355 nm) due to the hydrolysis of the substrate Z-Phe-Arg-7-amido-4-methylcoumarin (Z-FR-AMC, Sigma-Aldrich). The enzyme stock aliquot was rapidly thawed at 37°C and kept on ice until activation, in which it was incubated for 20 min. in the assay buffer (100 mM acetate pH 5.5 and 5 mM DTT) followed by additional 2 min. incubation with inhibitors before the reaction was started by the addition of the substrate.
Visual inspection and a pre-reading of plate wells were performed to check for possible precipitation and background fluorescence, respectively. Fluorescence emission spectra were also recorded for all inhibitors, using the same excitation wavelength (355 nm) as for the fluorometric assay. […] The reaction was started by the addition of varying concentrations of the substrate and the wells monitored for a total of 5 minutes of reaction. The initial velocities of the substrate hydrolysis under first-order reaction were calculated by Gen5 Biotek software based on the linear-regression coefficient from the fit to data of Relative Fluorescence Unit (mRFU) as a function of time (min).
Each experiment was performed in duplicates for each compound being tested. […] All inhibitors were evaluated in two different concentrations, which were chosen based on a previous screening (percentage of inhibition) at 1.7 μM substrate (~K M). […] SigmaPlot (v. 10.0) was employed for the non-linear fit and the kinetic parameters determination.

[3] = test system: T. cruzi CL-Brener strain amastigotes; test: Trypanocidal activity against amastigote forms in LLCMK2 cells, CL-Brener strain; format: cell-based; conditions: 5 days; for killing at 32 µM: Trypanosoma cruzi, LLC-MK2, 120 h, amastigote lysis, read-out: %cell lysis at 32 μM ama Brener
Protocol: as §1

[4] = test system: LLCMK2 cells; test: Lysis of LLCMK2 host cells; format: cell-based; conditions: for cytotoxicity at 32 µM: Macaca mulatta, LLC-MK2, 32 μM, read-out: %cell lysis at 32 μM LLCMK2

| Compound | killing at 32 µM [1] | Ki [2] | killing at 32 µM [3] | melting point | cytotoxicity at 32 µM [4] | other results |
| --- | --- | --- | --- | --- | --- | --- |
| N#CC1(NC(=O)[C@H](Cc2ccccc2)NC(=O)c2ccccc2)CC1 [Compound 7, (2S)-N-(1-cyanocyclopropyl)-3-phenyl-2-(phenylformamido)propanamide] | 16 ± 10% | 251 nM |  |  |  | EC50 [1]: 126000 nM |
| CC(C)(C#N)NC(=O)[C@H](Cc1ccccc1)NC(=O)c1ccccc1 [Compound 8, (2S)-N-(1-cyano-1-methylethyl)-3-phenyl-2-(phenylformamido)propanamide] |  | 3160 nM |  |  |  |  |
| N#CCNC(=O)[C@H](Cc1cccc(Cl)c1)NC(=O)c1ccccc1 [Compound 9, (2S)-3-(3-chlorophenyl)-N-(cyanomethyl)-2-(phenylformamido)propanamide] | 17 ± 2% | 251 nM | 24 ± 1% | 176 to 178 °C | 12 ± 1% | EC50 [1]: 100000 nM |
| N#CCNC(=O)[C@H](Cc1ccc(O)cc1)NC(=O)c1ccccc1 [Compound 10, (2S)-N-(cyanomethyl)-3-(4-hydroxyphenyl)-2-(phenylformamido)propanamide] | 32 ± 4% | 200 nM | 18 ± 1% | 209 to 210 °C | 18 ± 3% | EC50 [1]: 200000 nM |
| N#CCNC(=O)[C@H](Cc1ccc(OC(=O)c2ccccc2)cc1)NC(=O)c1ccccc1 [Compound 11, 4-[(2S)-2-[(cyanomethyl)carbamoyl]-2-(phenylformamido)ethyl]phenyl benzoate] | 16 ± 6% | 1260 nM | 17 ± 1% | 254 to 256 °C | 8 ± 5% | EC50 [1]: > 316000 nM |
| N#CCNC(=O)[C@H](CCCNC(=N)N)NC(=O)c1ccccc1 [Compound 13, (2S)-5-carbamimidamido-N-(cyanomethyl)-2-(phenylformamido)pentanamide] |  | 126000 nM |  | 117 to 118 °C |  |  |
| N#CCNC(=O)[C@H](Cc1ccccc1)NC(=O)C(F)(F)F [Compound 15, (2S)-N-(cyanomethyl)-3-phenyl-2-(trifluoroacetamido)propanamide] |  | 3980 nM |  |  |  |  |
| N#CCNC(=O)[C@H](Cc1ccccc1)NC(=O)c1cccs1 [Compound 16, (2S)-N-(cyanomethyl)-3-phenyl-2-(thiophen-2-ylformamido)propanamide] | 30 ± 11% | 794 nM | 24 ± 2% |  | 19 ± 4% | EC50 [1]: 63100 nM |
| N#CCNC(=O)[C@H](Cc1ccccc1)NC(=O)c1cnccn1 [Compound 19, (2S)-N-(cyanomethyl)-3-phenyl-2-(pyrazin-2-ylformamido)propanamide] | 22 ± 7% | 1580 nM | 21 ± 8% |  | 14 ± 1% | EC50 [1]: 79400 nM |
| N#CCNC(=O)[C@H](Cc1ccccc1)NC(=O)c1cncc(Br)c1 [Compound 20, (2S)-2-[(5-bromopyridin-3-yl)formamido]-N-(cyanomethyl)-3-phenylpropanamide] | 0% | 251 nM | 25 ± 8% |  | 17 ± 1% |  |
| Cn1nc(C(C)(C)C)cc1C(=O)N[C@@H](Cc1ccccc1)C(=O)NCC#N [Compound 21, (2S)-2-[(3-tert-butyl-1-methyl-1H-pyrazol-5-yl)formamido]-N-(cyanomethyl)-3-phenylpropanamide] |  | 63.1 nM |  | 160 to 162 °C |  |  |
| Cn1nc(C(F)(F)F)cc1C(=O)N[C@@H](Cc1ccccc1)C(=O)NCC#N [Compound 22] |  |  |  |  |  | %cell lysis at 32 μM ama Tula [1]: 48 ± 4%; pEC50 ama Tula [1]: 4.0; %cell lysis at 32 μM ama Brener [3]: 20 ± 2%; %cell lysis at 32 μM LLCMK2 [4]: 19 ± 0.4%; pKi [2]: 6.3 |
| N#CCNC(=O)[C@H](Cc1ccccc1)NC(=O)c1cc(=O)[nH]c(=O)[nH]1 [Compound 23, (2S)-N-(cyanomethyl)-2-[(2,6-dioxo-1,2,3,6-tetrahydropyrimidin-4-yl)formamido]-3-phenyl propanamide] |  |  |  |  |  | %cell lysis at 32 μM ama Tula [1]: 0%; %cell lysis at 32 μM ama Brener [3]: 27 ± 1%; %cell lysis at 32 μM LLCMK2 [4]: 22 ± 5%; pKi [2]: 5.9 |
| N#CCNC(=O)[C@H](Cc1ccccc1)NC(=O)OCc1ccccc1 [Compound 24, Benzyl N-[(1S)-1-[(cyanomethyl)carbamoyl]-2-phenylethyl]carbamate] |  | 501 nM |  |  |  |  |
| CC(C)(C)OC(=O)N[C@@H](Cc1ccccc1)C(=O)NCC#N [Compound 25, Tert-butyl-N-[(1S)-1-[(cyanomethyl)carbamoyl]-2-phenylethyl]carbamete] |  |  |  |  |  | %cell lysis at 32 μM ama Tula [1]: 37 ± 1%; pEC50 ama Tula [1]: 4.1; %cell lysis at 32 μM ama Brener [3]: 23 ± 2%; %cell lysis at 32 μM LLCMK2 [4]: 31 ± 2%; pKi [2]: 5.6 |
| CC(C)C[C@H](NC(=O)OC(C)(C)C)C(=O)NCC#N [Compound 27, tert-butyl N-[(1S)-1-[(cyanomethyl)carbamoyl]-3-methylbutyl]carbamate] | 0% | 1260 nM | 19 ± 3% |  | 0% |  |
| CC(C)C[C@H](NC(=O)c1cc(C(C)(C)C)nn1C)C(=O)NC1(C#N)CC1 [Compound 30, (2S)-2-[(3-tert-butyl-1-methyl-1H-pyrazol-5-yl)formamido]-N-(1-cyanocyclopropyl)-4-methylpentanamide] |  | 25.1 nM | 11 ± 6% |  |  |  |
| CC(C)C[C@H](NC(=O)OC(C)(C)C)C(=O)NC1(C#N)CC1 [Compound 31, tert-butyl N-[(1S)-1-[(1-cyanocyclopropyl)carbamoyl]-3-methylbutyl]carbamate] |  | 631 nM |  |  |  |  |
| CC(C)(C)C[C@H](NC(=O)c1ccccc1)C(=O)NC1(C#N)CC1 [Compound 32, (2S)-N-(1-cyanocyclopropyl)-4,4-dimethyl-2-(phenylformamido)pentanamide] |  | 25100 nM |  | 186 to 187 °C |  |  |
| Cn1nc(C(F)(F)F)cc1C(=O)N[C@@H](Cc1ccccc1)C(=O)NC1(C#N)CC1 [Compound 33, (2S)-N-(1-cyanocyclopropyl)-2-{[1-methyl-3-(trifluoromethyl)-1H-pyrazol-5-yl]formamido}-3-phenylpropanamide] |  | 398 nM | 22 ± 10% | 211 to 212 °C |  |  |
| Cn1nc(C(C)(C)C)cc1C(=O)N[C@@H](Cc1ccccc1)C(=O)NC1(C#N)CC1 [Compound 34, (2S)-2-[(5-tert-butyl-2-methylpyrazol-3-yl)formamido]-N-(1-cyanocyclopropyl)-3-phenylpropanamide] | 0% | 63.1 nM | 23 ± 3% |  | 17 ± 3% |  |
| N#CC1(NC(=O)[C@H](Cc2ccccc2)NC(=O)c2cnccn2)CC1 [Compound 35, (2S)-N-(1-cyanocyclopropyl)-3-phenyl-2-(pyrazin-2-ylformamido)propanamide] |  | 501 nM |  | 162 to 164 °C |  |  |
| N#Cc1cccc(C[C@H](NC(=O)c2ccccc2)C(=O)NC2(C#N)CC2)c1 [Compound 36, (2S)-N-(1-cyanocyclopropyl)-3-(3-cyanophenyl)-2-(phenylformamido)propanamide] |  | 3980 nM |  | 191 to 194 °C |  |  |
| N#CC1(NC(=O)C2(NC(=O)c3ccccc3)CCCC2)CC1 [Compound 37] |  |  |  |  |  | %cell lysis at 32 μM ama Tula [1]: 34 ± 5%; pEC50 ama Tula [1]: 4.1; %cell lysis at 32 μM ama Brener [3]: 8 ± 3%; %cell lysis at 32 μM LLCMK2 [4]: 26 ± 3%; pKi [2]: 4.9 |
